Source: patent publication US6525001B1, “Substituted pyrimidine and pyridine herbicides” (Mid-American Commercialization Corporation, priority 1997, dated 2003)

Experiments:
Format in all cases: in vivo
[1] = test system: hairy beggarticks (Bidens pilosa); experiment: Test C; parameters: key: 0 was no effect; 100 was complete control; conditions: PREEMERGENCE
[2] = test system: cocklebur (Xanthium strumarium); experiment: Test C; parameters: key: 0 was no effect; 100 was complete control; conditions: PREEMERGENCE
[3] = test system: large crabgrass (Digitaria sanguinalis); experiment: Test E pre-/postemergence/post directed; conditions: PREEMERGENCE
Description: (§1) Seeds, tubers, or plant parts of alexandergrass (Brachiaria plantaginea), annual bluegrass (Poa annua), arrowleaf sida (Sida rhombifolia), barnyardgrass (Echinochloa crus-galli), bermudagrass (Cynodon dactylon), citrus (Citrus sinensis), common chickweed (Stellaria media), common purslane (Portulaca oleracea), common ragweed (Ambrosia elatior), common groundsel (Senecio vulgaris), dallisgrass (Paspalum dilatatum), goosegrass (Eleusine indica), green foxtail (Setaria viridis), guineagrass (Panicum maximum), itchgrass (Rottboellia exaltata), johnson grass (Sorghum halepense), kochia (Kochia scoparia), large crabgrass (Digitaria sanguinalis), leafy spurge (Euphorbia esula), pitted morningglory (Ipomoea lacunosa), purple nutsedge (Cyperus rotundus), quackgrass (Agropyron repens), Russian thistle (Salsola kali), sandbur (Cenchrus echinatus), sourgrass (Trichachne insularis), Spanishneedles (Bidens bipinnata), sugarcane (Saccharum officinarum), surinam grass (Brachiaria decumbens) and tall mallow (Malva sylvestris) were planted into greenhouse pots of flats containing greenhouse planting medium. Plant species were grown grown in separate pots or individual compartments. Preemergence applications were made within one day of planting the seed or plant part. Postemergence applications were applied when the plants were in the two to four leaf stage (three to twenty cm).
(§2) Test chemicals were formulated in a non-phytotoxic solvent mixture which included a surfactant and applied preemergence to the soil surface, postemergence to the plants or as a post directed spray to plants and soil at the base of the target species. Untreated control plants and treated plants were placed in the greenhouse and visually evaluated for injury 13 to 21 days after herbicide application. Plant response ratings, summarized in Table E, are based on a 0 to 100 scale where 0 is no injury and 100 is complete control. A dash (−) response means no test result.

[4] = test system: bermudagrass (Cynodon dactylon); experiment: Test E pre-/postemergence/post directed; conditions: PREEMERGENCE
Description: as §1, §2

[5] = test system: common ragweed (Ambrosia elatior); experiment: Test E pre-/postemergence/post directed; conditions: PREEMERGENCE
Description: as §1, §2

[6] = test system: alexandergrass (Brachiaria plantaginea); experiment: Test E pre-/postemergence/post directed; conditions: PREEMERGENCE
Description: as §1, §2

[7] = test system: sandbur (Cenchrus echinatus); experiment: Test E pre-/postemergence/post directed; conditions: PREEMERGENCE
Description: as §1, §2

[8] = test system: Spanishneedles (Bidens bipinnata); experiment: Test E pre-/postemergence/post directed; conditions: PREEMERGENCE
Description: as §1, §2

[9] = test system: large crabgrass (Digitaria sanguinalis); experiment: Test E pre-/postemergence/post directed; parameters: key: 0 is no effect; 100 is complete control; conditions: PREEMERGENCE
Method in brief: (§3)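 Greenhouse pots; compound in non-phytotoxic solvent with surfactant, sprayed preemergence within one day of planting, postemergence at two to four leaf stage (three to twenty cm), or post directed to plant base and soil. Visual injury rated 13 to 21 days after application, 0 (none) to 100 (complete control).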

[10] = test system: goosegrass (Eleusine indica); experiment: Test E pre-/postemergence/post directed; parameters: key: 0 is no effect; 100 is complete control; conditions: PREEMERGENCE
Method in brief: as §3

[11] = test system: bermudagrass (Cynodon dactylon); experiment: Test E pre-/postemergence/post directed; parameters: key: 0 is no effect; 100 is complete control; conditions: PREEMERGENCE
Method in brief: as §3

[12] = test system: sourgrass (Trichachne insularis); experiment: Test E pre-/postemergence/post directed; parameters: key: 0 is no effect; 100 is complete control; conditions: PREEMERGENCE
Method in brief: as §3

[13] = test system: common ragweed (Ambrosia elatior); experiment: Test E pre-/postemergence/post directed; parameters: key: 0 is no effect; 100 is complete control; conditions: PREEMERGENCE, Rate 250 g/ha
Method in brief: as §3

[14] = test system: common groundsel (Senecio vulgaris); experiment: Test E pre-/postemergence/post directed; parameters: key: 0 is no effect; 100 is complete control; conditions: PREEMERGENCE
Method in brief: as §3

[15] = test system: purple nutsedge (Cyperus rotundus); experiment: Test E pre-/postemergence/post directed; parameters: key: 0 is no injury; 100 is complete control; conditions: PREEMERGENCE
Description: as §1, §2

[16] = test system: sandbur (Cenchrus echinatus); experiment: Test E pre-/postemergence/post directed; parameters: key: 0 is no injury; 100 is complete control; conditions: PREEMERGENCE, Rate 32 g/ha
Description: as §1, §2

[17] = test system: wild poinsettia (Euphorbia heterophylla); experiment: Test C; parameters: key: 0 was no effect; 100 was complete control; conditions: PREEMERGENCE
[18] = test system: soybean (Glycine max); experiment: Test C; parameters: key: 0 was no effect; 100 was complete control; conditions: PREEMERGENCE

CCc1cnc(-n2ccc(C(F)(F)F)n2)nc1Cc1cccc(C(F)(F)F)c1 [Compound 46]
Plant response rating, H. beggarticks ([1]; Rate 35 g/ha): 0
Plant response rating, H. beggarticks ([1]; Rate 70 g/ha): 100
Plant response rating, H. beggarticks ([1]; Rate 140 g/ha): 100
Plant response rating, Cocklebur ([2]; Rate 35 g/ha): 0
Plant response rating, Cocklebur ([2]; Rate 70 g/ha): 10
Plant response rating, Cocklebur ([2]; Rate 140 g/ha): 5
Plant response rating, Large crabgrass ([3]; Rate 32 g/ha): 90
Plant response rating, Large crabgrass ([3]; Rate 64 g/ha): 98
Plant response rating, Bermudagrass ([4]; Rate 32 g/ha): 70
Plant response rating, Bermudagrass ([4]; Rate 64 g/ha): 98
Plant response rating, Com. ragweed ([5]; Rate 64 g/ha): 98
Plant response rating, Com. ragweed ([5]; Rate 125 g/ha): 98
Plant response rating, Alexandergrass ([6]; Rate 125 g/ha): 60
Plant response rating, Alexandergrass ([6]; Rate 250 g/ha): 60
Plant response rating, Sandbur ([7]; Rate 64 g/ha): 10
Plant response rating, Sandbur ([7]; Rate 125 g/ha): 10
Plant response rating, Sandbur ([7]; Rate 250 g/ha): 30
Plant response rating, Spanishneedles ([8]; Rate 32 g/ha): 65
Plant response rating, Spanishneedles ([8]; Rate 64 g/ha): 85
Plant response rating, Spanishneedles ([8]; Rate 125 g/ha): 90
Plant response rating, Spanishneedles ([8]; Rate 250 g/ha): 90
Plant response rating, Large crabgrass ([9]; Rate 125 g/ha): 100
Plant response rating, Large crabgrass ([9]; Rate 250 g/ha): 100
Plant response rating, Goosegrass ([10]; Rate 32 g/ha): 85
Plant response rating, Goosegrass ([10]; Rate 64 g/ha): 90
Plant response rating, Goosegrass ([10]; Rate 125 g/ha): 98
Plant response rating, Goosegrass ([10]; Rate 250 g/ha): 100
Plant response rating, Bermudagrass ([11]; Rate 125 g/ha): 100
Plant response rating, Bermudagrass ([11]; Rate 250 g/ha): 100
Plant response rating, Sourgrass ([12]; Rate 32 g/ha): 98
Plant response rating, Sourgrass ([12]; Rate 64 g/ha): 100
Plant response rating, Sourgrass ([12]; Rate 125 g/ha): 100
Plant response rating, Sourgrass ([12]; Rate 250 g/ha): 100
Plant response rating, Com. ragweed [13]: 100
Plant response rating, Com. groundsel ([14]; Rate 32 g/ha): 100
Plant response rating, Com. groundsel ([14]; Rate 64 g/ha): 100
Plant response rating, Com. groundsel ([14]; Rate 125 g/ha): 100
Plant response rating, Com. groundsel ([14]; Rate 250 g/ha): 100
Plant response rating, Purple nutsedge ([15]; Rate 32 g/ha): 0
Plant response rating, Purple nutsedge ([15]; Rate 64 g/ha): 0
Plant response rating, Purple nutsedge ([15]; Rate 125 g/ha): 0
Plant response rating, Purple nutsedge ([15]; Rate 250 g/ha): 0
Plant response rating, Sandbur [16]: 0
Plant response rating, Wild poinsettia ([17]; Rate 35 g/ha): 0
Plant response rating, Wild poinsettia ([17]; Rate 70 g/ha): 15
Plant response rating, Wild poinsettia ([17]; Rate 140 g/ha): 20
Plant response rating, Soybean ([18]; Rate 35 g/ha): 0
Plant response rating, Soybean ([18]; Rate 70 g/ha): 0
Plant response rating, Soybean ([18]; Rate 140 g/ha): 20
